From patent US5045548A, “Quinolyl methoxy compounds and their use as antiasthmatic agents” (Fujisawa Pharmaceutical Company, Ltd., priority 1987, dated 1991)
pIC50: −log10 of the molar value.

What was measured:
[1] = test system: Intimal Thickening of Rabbit Carotid Artery; test: Antiatherosclerotic activity: cuff-induced intimal thickening of rabbit carotid artery; assay type: in vivo, rabbit (male Japanese white); conditions: i.m.; for Intimal thickening index: once a day, 3 weeks, mean ± SE (n = 8)
Text: Induction of Intimal Thickening of Rabbit Carotid Artery
Forty male Japanese white rabbits weighing about 2 kg were used for the test of the compound of Example 40. They were divided into 5 groups of 8 animals: one served as control, and the other 4 as drug dose groups. The rabbits were anesthetized with care not to injure the surrounding tissues. A polyetherylene cuff (1.5 cm long, 2.15 mm inner diameter, 3.25 mm outer diameter) was placed around the artery. The rabbits were maintained for 3 weeks on standard laboratory diet and water ad libitum. The compound of Example 40 and the vehicle (0.5%, w/v methyl cellulose in saline) were given intramuscularly once a day starting from the day of cuff-placement. At the end of the 3rd week, the rabbits were heparinized (500, i.v.), and the artery was removed, washed free of blood with saline, fixed by immersion in 10% formalin and divided into 8 cross-segments about 2 mm long. The segments were embedded in paraffin and cut into transverse sections. These sections were stained with orecin. About 70 transverse sections were prepared form each artery and used for the quantitation of the initimal thickening.
Quantitation of Intimal Thickening (Intimal Thickening Index)
The arterial sections were observed by light microscopy and the intimal thickening was scored as follows. 0=no thickening; 1=slight hyperplasia in the subendothelial space with intima media ratio of about 1/10; 2=several layers of cells in the subendothelial space with intima media ratio of about 1/5, or parts of the subendothelial space with more hyperplasia; 3=sever hyperplasia throughout the subendothelial space with intima media ratio of more than 1/3.

[2] = test system: SRS-A (Slow Reacting Substance of Anaphylaxis) synthesis in rat polymorpholeukocyte (PMN); test: Inhibitory Activity of SRS-A synthesis in rat polymorpholeukocyte (PMN) using the calcium ionophore A23187 (i-LTC4 by radioimmunoassay); assay type: cell-based, rat (male Sprague-Dawley); conditions: Rattus norvegicus, 0.25 h, 10 μM A23187, 15 min, 37° C.
Procedure: Test I: Inhibitory Activity of SRS-A (Slow Reacting Substance of Anaphylaxis) synthesis in rat polymorpholeukocyte (PMN) of using the calcium ionophore Male Sprague-Dawley rats weighing 250-300 g were anesthetized with ether and each was injected intraperitoneally with 20 ml of 0.1% clycogen (from Oyster). After 20 hours the rats were sacrificed and PMN were recovered in rinse of the peritoneal cavity with 10 ml Dulbeccos PBS (components in g/L: CaCl2 0.1, KH2 PO4 0.2, MgCl2.6H2 O 0.1, NaCl 8.0, Na2 HPO4.7H2 O 2.16; pH7.4). These rinses were filtered through nylon wool filter and centrifuged for 5 min at 1000 xg. The pellet was suspended in Dulbeccos PBS and centrifuged for 5 min at 1000 xg. The pellet was resuspended in Dulbeccos PBS and adjusted the cell concentration to 10^7 cells/ml with Dulbeccos PBS. Samples were dissolved in ethanol and dispersed in Dulbeccos PBS to give a concentration of 10^-10 -10^-5 M Antibiotic A23187; calcium ionophor ([…] Diagnostics) (hereinafter referred to A23187) in DMSO(10mM) was diluted with Dulbeccos PBS to give the concentration of 1 mM. Aliquots of the cell suspension (1×10^7 cells/ml, 0.98 ml) were equilibrated for 30 min at 37° C. Solution of sample(10 μl) was added and incubated for 15 min at 37° C. before the addition of 10 μl of A23187 solution. Thus the final incubation volume of 1 ml contained approximately 1×10^7 cells, 10^-10 -10^-5 M samples and 10 μM A23187. Incubation with A23187 were continued for 15 min at 37° C. The reactions were terminated by setting the assay tubes in ice bath to chill as rapidly as possible to 4° C. The test tubes were centrifuged at 1500 xg for 5 min at 4° C. and decanted the supernatants into the tubes and kept cold prior to assaying. The concentration of i-LTC4 in the cell-free supernatants from the incubations were determined by specific radioimmunoassay. The mean values of i-LTC4 (these incubations were carried out in duplicate) of each sample were calculated and the effect of samples on the synthesis of the leukotrienes was presented as a percentage of the value in the absence of samples.

[3] = test system: CDE-induced pancreatitis in mice; test: Effect on experimental pancreatitis in mice (CDE diet-induced, lethal); assay type: in vivo, mouse (female ICR); conditions: for % survival: orally two times a day for 4 days, N = 20, control 15
Text: Test III: Effect on experimental pancreatitis in mice
The effect of 5-lipoxygenase inhibitor, the compound of Example 40 was studied in a lethal form of pancreatitis induced by feeding mice an ehionine-supplemented choline-deficient diet (CDE diet).
Female ICR mice, aged 3 wk were used in this study. All mice were fed a regular laboratory diet before the experiments. The CDE diet was then substituted for 2 days, and after this period replaced by the regular diet for an additional 6 days.
The compound of Example 40 was administered orally two times a day for 4 days after the beginning of the CDE diet.

[4] = 0.1 mg/kg, P < 0.01 compared with vehicle control
[5] = 10 mg/kg, P < 0.01 compared with vehicle control

Question: For `CCCCC1(CCCC)CCc2c(OCc3ccc4ccccc4n3)cccc2C1O` (single isomer, unassigned; (+)) [Example 40, (+)-2,2-dibutyl-5-(2-quinolylmethoxy)-1,2,3,4-tetrahydro-1-naphthol], which “Intimal thickening index, percentage versus the mean value of vehicle control” value ([1]; 0.01 mg/kg) is on record?
Answer: 90.1%

Question: What about the Intimal thickening index ([1]; 0.01 mg/kg) of the same molecule?
Answer: 1.27 ± 0.17

Question: What about the Intimal thickening index [1, 4] of the same molecule?
Answer: 0.71 ± 0.16

Question: What about the “Intimal thickening index, percentage versus the mean value of vehicle control” value [1, 4] of the same molecule?
Answer: 50.4%

Question: And the “Intimal thickening index, percentage versus the mean value of vehicle control” value ([1]; 1.0 mg/kg)?
Answer: 65.9%

Question: And the Intimal thickening index ([1]; 1.0 mg/kg)?
Answer: 0.93 ± 0.31

Question: What about the “inhibition of cuff-induced intimal thickening (in words)” value ([1]; 0.01-10 mg/kg) of the same molecule?
Answer: dose-dependently inhibited cuff-induced intimal thickening

Question: And the “inhibitory activity on intimal thickening (in words)” value ([1]; 10 mg/kg)?
Answer: exerted significant inhibitory activity

Question: What about the Intimal thickening index [1, 5] of the same molecule?
Answer: 0.60±0.21

Question: What about the “Intimal thickening index, percentage versus the mean value of vehicle control” value [1, 5] of the same molecule?
Answer: 42.5%

Question: What about the pIC50 [2] of the same molecule?
Answer: 8.19

Question: And the “% survival” value ([3]; 10 mg/kg)?
Answer: 10%

Question: And the “% survival” value ([3]; 32 mg/kg)?
Answer: 35%

Question: And the “% survival” value ([3]; 100 mg/kg)?
Answer: 85%

Question: And the “prevention of CDE-induced pancreatitis (in words)” value ([3]; orally, 10-100 mg/kg)?
Answer: prevented the CDE-induced pancreatitis in a dose-dependent manner
